Patent US20160272713A1, “Fibrosis Inhibiting Compounds and Methods of Use Thereof in the Prevention or Treatment of Fibrosing Diseases” (priority 2013, published 2016)

Assays:
[1] = system: fibrocyte formation from human PBMCs; assay: fibrocyte formation (differentiation) assay with PBMCs in serum-free medium; assay type: cell-based; conditions: for IC50: PBMC, read-out: IC50 of inhibition of fibrocyte formation; for concentration at which fibrocyte formation was significantly inhibited: p<0.05 (t-test); for effect on fibrocyte formation / differentiation (in words): counts normalized to control
Description: (§1) Human blood was collected into heparin tubes (BD Bioscience, San Jose, Calif.) from adult volunteers who gave written consent and with specific approval from the Texas A&M University human subjects Institutional Review Board. PBMCs were then isolated as previously described in Pilling, D. et al., Improved serum-free culture conditions for differentiation of human and murine fibrocytes, Journal of Immunology Methods 351:62-70 (2009), incorporated in material part by reference herein. Alamar Blue (Life Technologies, Grand Island, N.Y.) was used to assess cell viability following the manufacturer's protocol. Fibrocyte differentiation assays in the presence of different compounds were performed in serum-free medium as described in Pilling, D. et al., Improved serum-free culture conditions for differentiation of human and murine fibrocytes, Journal of Immunology Methods 351:62-70 (2009) which is incorporated in material part by reference herein. Macrophage polarization assays to detect formation of proinflammatory macrophages with an M1 phenotype were carried out in serum-free medium, in which case monocytes were left to differentiate to macrophages for 5 days and then the medium was replaced with fresh medium containing 3 microgram/ml of the tested protein.

macrophages = assay: macrophage polarization assay (M1 marker ICAM-1, M2 marker CD163); assay type: cell-based, human; conditions: 3 microgram/ml protein
Description: as §1
Macrophage staining with anti-CD163 and anti-ICAM-1 antibodies was carried out as described in Pilling, D. et al., Identification of markers that distinguish monocyte-derived fibrocytes from monocytes, macrophages, and fibroblasts, PloS one 10:e7475 (2009) which is incorporated in material part by reference herein. Both primary antibodies were used at a concentration of 5 microgram/ml.

C57/BL6 mice = assay: bleomycin-induced pulmonary fibrosis in mice; assay type: in vivo
Method: To determine the effects of compound 1 in treatment of a fibrosing disease, pulmonary fibrosis was selected as a model. Pulmonary fibrosis was induced in C57/BL6 mice by oropharyngeal aspiration of bleomycin into their lungs. 24 hour after bleomycin administration, mice received daily intraperitoneal injections of compound 1. At day 21 mice were euthanized and the bronchoalveolar lavage fluid (BAL) and the lungs were harvested.
The successful aspiration of bleomycin into the lungs was confirmed by listening for the crackling noise heard after the aspiration. Starting 24 hours following bleomycin aspiration (day 1), mice were treated daily with intraperitoneal injections of 50 microliters of PBS containing 2 microliters of 1 mg/ml of compound 1 (ChemBridge Corporation, San Diego, Calif.) (0.1 mg/kg) dissolved in DMSO (SigmaAldrich), 2 microliters of 0.1 mg/ml of compound 1 (0.01 mg/kg) dissolved in DMSO, 2 microliters of 0.01 mg/ml of compound 1 (0.001 mg/kg) dissolved in DMSO, or an equal volume of PBS containing 2 microliters of DMSO. All animals were used in accordance with rules published by the National Institutes of Health and with a protocol approved by the Texas A&M University Institutional Animal Care and Use Committee. Mice were weighed daily, and euthanized using CO2 following NIH guidelines at day 21 after bleomycin aspiration. No injections were done on day 21. […] The BAL cells from the first BAL collection were collected by centrifugation at 500×g for 10 minutes, and the supernatants were transferred to Eppendorf tubes. The supernatants were flash frozen with liquid nitrogen, and stored at −20° C. until further use. The BAL pellets were resuspended in the secondary and tertiary BAL fluid and the combined cells were collected by centrifugation at 500×g for 5 minutes. The cells were resuspended in 500 microliters of 4% (w/v) BSA-PBS and counted with a hemocytometer. 100 microliters of diluted cells were then aliquoted into cytospin funnels and were then spun onto glass slides (Superfrost plus white slides, VWR) at 400×g for 5 minutes using a cytospin centrifuge (Shandon, Cheshire, England). These cells were then air-dried, and stained for CD11b (Biolegend) or CD11c (MBL International, Woburn, Mass.) as described below.
After collection of BAL fluid, mouse lungs were inflated with prewarmed OCT (VWR, Radnor, Pa.) and then embedded in OCT, frozen on dry ice, and then stored at −80° C. 6-micron cryosections of mouse lung were mounted on Superfrost Plus microscope slides (VWR). Sections were fixed in acetone for 20 min at room temperature. […] After washing, the biotinylated antibodies were detected by streptavidin-alkaline phosphatase (Vector Laboratories) following the manufacturer's protocol. […]

[2] = 0.1, 0.01 and 0.001 mg/kg daily intraperitoneal, day 21

| Molecule | IC50 [1] [nM] | expression of the M1 marker ICAM-1 (macrophages) | expression of the M2 marker CD163 (macrophages) | effect on fibrocyte formation / differentiation (in words) [1] | further results |
| --- | --- | --- | --- | --- | --- |
| CCCOC(=O)c1ccc(-c2ccc(C=C3C(=O)N(c4ccc(S(N)(=O)=O)cc4)N=C3C(F)(F)F)o2)cc1 [Compound 2] | 0.33 | – | – | – | – |
| SAP: Serum amyloid P, 125 kDa pentameric pentraxin protein | – | did not cause such an increase | increased the expression of the M2 marker CD 163 | – | concentration at which fibrocyte formation was significantly inhibited [1]: ≥ 0.25 microgram/ml |
| CCC(=O)Nc1nc(C)c(-c2csc(Nc3ccc(N(C)C)cc3)n2)s1 [Compound 1] | 0.0031 | – | – | – | CD11b positive inflammatory macrophages in the BAL vs bleomycin control (C57/BL6 mice; [2]): significantly decreased; collagen in the lungs (picrosirius red) vs bleomycin alone (C57/BL6 mice; [2]): significantly less collagen in the lungs; number of CD11b positive inflammatory macrophages in the lung sections (C57/BL6 mice; 0.1 and 0.01 mg/kg daily intraperitoneal, day 21, after BAL): significantly decreased; CD11c positive macrophages in the BAL (C57/BL6 mice; daily intraperitoneal injections, day 21): not altered significantly |
| SAP NA: enzymatically (neuraminidase) desialylated SAP lacking the terminal sialic acids | – | increased the expression of the M1 marker ICAM-1 | did not | reduced inhibitory effect on fibrocyte differentiation | – |
| COC(=O)c1ccc(-c2ccc(C=C3C(=O)N(c4ccc(S(N)(=O)=O)cc4)N=C3C(F)(F)F)o2)cc1 [Compound 3] | 2.2 | – | – | significantly inhibited fibrocyte formation at all tested concentrations | – |
| CRP A32N: CRP glycosylated by mutating its 32nd amino acid from alanine to asparagine (protein, UniProt P02741 19-224, looked up, variant A32N) C-reactive protein: QTDMSRKAFVFPKESDTSYVSLKAPLTKPLKNFTVCLHFYTELSSTRGYSIFSYATKRQDNEILIFWSKDIGYSFTVGGSEILFEVPEVTVAPVHICTSWESASGIVEFWVDGKPRVRKSLKKGYTVGAEASIILGQEQDSFGGNFEGSQSLVGDIGNVNMWDFVLSPDEINTIYLGGPFSPNVLNWRALKYEVQGEVFTKPQLWP | – | did not cause such an increase | increased the expression of the M2 marker CD 163 | able to inhibit fibrocyte formation, although not as well as SAP | concentration at which fibrocyte formation was significantly inhibited [1]: ≥ 1 microgram/ml |
| CRP: C-reactive protein, 51% sequence identity with SAP (protein, UniProt P02741 19-224, looked up) C-reactive protein: QTDMSRKAFVFPKESDTSYVSLKAPLTKPLKAFTVCLHFYTELSSTRGYSIFSYATKRQDNEILIFWSKDIGYSFTVGGSEILFEVPEVTVAPVHICTSWESASGIVEFWVDGKPRVRKSLKKGYTVGAEASIILGQEQDSFGGNFEGSQSLVGDIGNVNMWDFVLSPDEINTIYLGGPFSPNVLNWRALKYEVQGEVFTKPQLWP | – | increased the expression of the M1 marker ICAM-1 | did not | – | – |
